Test results taken from paper PMC7805210, “Study on suitable analysis method for HIV-1 non-catalytic integrase inhibitor” (Virology Journal, 2021).

Legend:
HIV-1 integrase [1] = target: T1, HIV-1 integrase (Human immunodeficiency virus type 1 group M subtype B, UniProt P04585); assay: 3'-processing inhibition assay (modified strand transfer assay, inhibitor pre-incubated with IN); type: biochemical; details: 20 nM IN pre-incubated 30 min
T1 construct: 100 μl IN enzyme solution was added to each well; purchased XpressBio, Frederick, MD
Experimental: To confirm the 3′-processing inhibition activity NCINI, the strand transfer inhibition assay was modified. The plate coating process with DS DNA was conducted in a similar manner. […] Reaction of integrase first with the drug before its reaction with DS DNA is a necessary step to validate the 3′-processing inhibitory activity of the compound. The integrase-inhibitor mixture was added to LTR DS DNA-conjugated 96-well plates. Subsequent steps were conducted in a similar manner as the strand transfer assay.
The subsequent steps were the same as the strand transfer assay protocol (Fig. 4a).
The 3′-processing inhibition assay was performed by modifying the protocol of the strand transfer assay. […] Before addition of LTR dsDNA, fivefold serially diluted integrase inhibitors were incubated with 20 nM integrase for 30 min. The integrase-inhibitor mixtures were treated with LTR dsDNA-conjugated 96-well plates. After incubation, target DNA was added to each well for the strand transfer reaction and the products detected colorimetrically using a HRP-labeled antibody against 3′-modified target DNA. "No integrase" and "integrase-only" wells were set as the negative and positive control, respectively

HIV-1 AD8 strain [2] = assay: p24 ELISA antiviral activity in infected MT2 cells; details: for EC50: Human immunodeficiency virus 1, MT2, 120 h; for SI value (CC50/EC50): MT2 cell system
Experimental: ELISA was conducted to detect HIV-1 p24 for assessment of antiviral activity using a HIV-1 p24 ELISA kit (XpressBio, Frederick, MD). To this end, MT2 cells seeded on a 96-well cell culture plate at a density of a 1 × 10^4 cells/well were infected with 500 TCID50 of HIV-1 AD8 strain. Each drug was serially diluted threefold (from 10,000 to 0.51 nM) for treatment of cells. After five days of culture at 37 °C with 5% CO2, 100 μl of culture medium was harvested and supernatant obtained by centrifugation for 5 min at 5000 rpm (8400 rcf), with storage at − 80 °C. Cell culture media of non-infected and infected cells without INI treatment were set as the negative and positive control, respectively. The ELISA procedure was conducted according to the manufacturer’s instructions. Briefly, samples were mixed with 20 μl lysis buffer, 200 μl aliquots pipetted into a microplate, and incubated for 1 h at 37 °C. After incubation, the contents of the wells were aspirated and microtitration plates washed six times with 350 μl wash buffer. Each well was treated with 100 μl detection antibody for 1 h at 37 °C, which was subsequently removed by washing under the same conditions. An aliquot (100 μl) of streptavidin-HRP conjugate was added into each well, followed by incubation at room temperature for 30 min. After washing under the same conditions, 100 μl substrate solution was immediately dispensed into each well and incubated for 30 min at room temperature with protection from direct sunlight. For termination of the reaction, 100 μl stop solution was added to each well and absorbance values at 450 nm immediately read using a microplate reader.
MT2 cells infected with 500 TCID50 of HIV-1 AD8 strain were treated with a range of concentrations of each drug. At 5 days post-infection, cell culture media were harvested for p24 ELISA. Media of non-infected and infected cells without HIV drug treatment were set as the negative or positive control, respectively.

[3] = Cell cytotoxicity by WST method (EZ-Cytox) in MT2 cells; type: cell-based; details: human, 5 days incubation
Experimental: (§1) To determine the cytotoxicity of anti-HIV drugs, cell viability was assessed via the water-soluble tetrazolium salt (WST) method using an EZ-Cytox kit (Daeil Lab Service, Seoul, Korea) according to the manufacturer’s instructions. […] Cells were treated with serial dilutions of each drug ([…] dilutions from 50,000 to 2.54 nM). On days 2 and 5 of incubation, 10 μl EZ-Cytox solution was added to each well and incubated for 2 h, followed by spectrophotometric measurement of absorbance at 540 nm.

[4] = Cell cytotoxicity by WST method (EZ-Cytox) in TZM-bl cells; type: cell-based; details: human, 2 days incubation
Experimental: as §1

[5] = target: integrase strand transfer; details: does not inhibit strand transfer; cited from earlier work
[6] = system: HxB2, NL4.3 and a recombinant NL4.3 strain; details: against HxB2, NL4.3 and a recombinant NL4.3 strain; cited from earlier work
HIV-1 AD8 strain [7] = assay: Antiviral activity test using the TZM-bl cell luciferase system; details: for EC50: Human immunodeficiency virus 1, TZM-bl, 48 h
Experimental: TZM-bl cells were seeded on 96-well cell culture plates at a density of 1 × 10^4 cells/well and cultured overnight. Each drug was twofold serially diluted from 10,000 to 0.15 nM and treated to cells. After a 30 min incubation period, viral infection was performed with 500 TCID50 of HIV-1 AD8. Cells were cultured for 48 h after infection and luciferase activity measured using Beetle-Lysis Juice (PJK GmbH, Kleinblittersdorf, Germany) according to the manufacturer’s instructions. Briefly, the medium was removed, and cells washed three times with 200 μl PBS. Next, 100 μl Beetle-Lysis Juice containing luciferin and ATP were added to each well and incubated for 5 min with protection from sunlight. Subsequently, luciferase activity was measured using a micro beta counter (PerkinElmer, Waltham, MA) after transferring solutions to a white 96-well plate. Anti-HIV efficacy of drugs was determined based on reduced expression of luciferase relative to the virus-only treatment group.
Fig.1 Determination of antiviral activities of integrase inhibitors in the TZM-bl cell line system. Integrase inhibitors were serially diluted and incubated with 1 × 10^4 TZM-bl cells per well during 30 min, followed by infection with 500 TCID50 of HIV-1 AD8 strain. For determination of antiviral efficacy, luciferase activity was measured after 48 h of incubation. Cell culture media of non-infected and infected cells without HIV drug treatment were set as the negative and positive control, respectively.

HIV-1 integrase [8] = target: T1, HIV-1 integrase; assay: Strand transfer inhibition assay (HIV-1 integrase assay kit); type: biochemical; details: read-out: strand transfer inhibitory activity
Experimental: The strand transfer assay was performed using the HIV-1 integrase assay kit (XpressBio, Frederick, MD) according to the manufacturer’s instructions. Briefly, 100 μl of 1X donor substrate DNA (DS DNA) solution was added to each well and incubated for 30 min at 37 °C. The liquid was aspirated from the wells and washed 5 times with 300 μl wash buffer, followed by incubation with 200 μl blocking buffer per well for 30 min at 37 °C. Following aspiration of the liquid, wells were washed three times with 200 μl reaction buffer. Next, 100 μl IN enzyme solution was added to each well and incubated under similar conditions followed by removal of liquid and three washes with 200 μl reaction buffer. Each test sample was fivefold serially diluted (from 1000 to 8 μM) in reaction buffer and 50 μl aliquots added per well. After 5 min incubation at room temperature, 50 μl 1X target substrate DNA (TS DNA) solution was directly added to the 50 μl test sample within the wells. Reactions were mixed by tapping the plate gently 3–5 times and incubating for 30 min at 37 °C, washed 5 times with 300 μl wash solution and incubated with 100 μl HRP antibody for 30 min at 37 °C. After washing the plate under the same conditions, 100 μl TMB peroxidase substrate solution was added per well and incubated for 10 min at room temperature. To terminate the reaction, 100 μl TMB stop solution was directly added to wells and absorbance read using a plate reader at 450 nm.
Fig.3 Strand transfer inhibition efficiency of catalytic and non-catalytic integrase inhibitors. a Schematic diagram of the strand transfer assay process. The yellow and blue boxes represent the response under conditions of no IN inhibitor or INSTI, respectively. b Integrase inhibitor compounds at a range of concentrations generated from fivefold serial dilutions were used to treat 3′-end cleaved LTR DS DNA by integrase. After incubation, TS DNA was added to each well for the strand transfer reaction. The reaction products were detected colorimetrically using a HRP-labeled antibody against modified target DNA. "No integrase" and "Integrase only" wells were set as the negative and positive control, respectively

SMILES | IN inhibition activity (3'-processing, modified protocol) (HIV-1 integrase [1]; at 3.2 μM) | IN inhibition activity (3'-processing, modified protocol) (HIV-1 integrase [1]; at 2000 μM) | EC50 (HIV-1 AD8 strain [2]) | CC50 at 5 days [3] | CC50 at 2 days [4] | EC50 [5] | EC50 [6] | EC50 (HIV-1 AD8 strain [7]) | inhibition at 8 µM (HIV-1 integrase [8]) | inhibition at 1000 µM (HIV-1 integrase [8]; at 1000 μM) | SI value (CC50/EC50) (HIV-1 AD8 strain [2]) | SI value (CC50/EC50) (HIV-1 AD8 strain [7]; TZM-bl cell system)
Cc1nc2ccccc2c(-c2ccc3c4c(ccnc24)CCO3)c1[C@H](OC(C)(C)C)C(=O)O [BI 224436] | 80.65% | 87.14% | 28.7 nM | > 50000 nM | > 50000 nM | > 50000 nM | 11 to 27 nM | 566 nM | 20% | 36% |  | 
C[C@@H]1CCO[C@H]2Cn3cc(C(=O)NCc4ccc(F)cc4F)c(=O)c(O)c3C(=O)N12 [DTG, Dolutegravir] |  |  | < 0.51 nM | 1740 nM | > 50000 nM |  |  | 1.6 nM | > 50% |  | > 3413.60 | 
COc1cc2c(cc1Cc1cccc(Cl)c1F)c(=O)c(C(=O)O)cn2[C@H](CO)C(C)C [EVG, Elvitegravir] |  |  | < 0.51 nM | 1260 nM | 26000 nM |  |  | < 0.15 nM |  |  |  | 
Cc1nnc(C(=O)NC(C)(C)c2nc(C(=O)NCc3ccc(F)cc3)c(O)c(=O)n2C)o1 [RAL, Raltegravir] |  |  | 0.58 nM | 6420 nM | > 50000 nM |  |  | 10.4 nM | > 50% |  | 11,075.19 | > 4816.96
